According to patent publication US20140045908A1, “HSP90 INHIBITORY COMPOUNDS IN TREATING JAK/STAT SIGNALING-MEDIATED CANCERS” (SYNTA PHARMACEUTICALS CORP., priority 2011, published 2014):

Columns and labels:
DU145 cells = test: Cell viability assay (AlamarBlue, 72 h); format: cell-based, human
Experimental: (§1) All cell lines were obtained from the ATCC (Rockville, Md., USA), with the exception of SET-2 cells which were purchased from the German Collection of Microorganisms and Cell Cultures (DSMZ, Germany). Cells were maintained and cultured according to standard techniques at 37° C. in 5% (v/v) CO2 using culture medium recommended by the supplier.
(§2) Cells were grown in 96-well plates based on optimal growth rates determined empirically for each line. Twenty-four hours after plating, cells were dosed with the indicated compound or DMSO (0.3%) for 72 h. AlamarBlue (Invitrogen, Carlsbad, Calif., USA) was added (10% v/v) to the cells, and the plates were incubated for 3 h and subjected to fluorescence detection (Ex=545 nm, Em=600 nm) in a SpectraMax Plus 384 microplate reader (Molecular Devices, Sunnyvale, Calif., USA). Data are normalized to percent of control, with IC50 values based on a four-parameter logistic dose response curve (model 205) using XLfit version 5.1 from IDBS (Guildford, U.K.).

HEL92.1.7 cells [1] = test: Cell viability assay (AlamarBlue, 72 h); format: cell-based, human
Experimental: as §1, §2

MV4-11 cells = test: Cell viability assay (AlamarBlue, 72 h); format: cell-based, human
Experimental: as §1, §2

SET-2 cells = test: Cell viability assay (AlamarBlue, 72 h); format: cell-based, human
Experimental: as §1, §2

[2] = system: JAK2 dependent signaling in HEL92.1.7 cells; test: Western blot of JAK/STAT signaling in HEL92.1.7 cells; format: cell-based, human
Experimental: FIG. 2 compares the more durable ganetespib durable inhibition of JAK/STAT signaling to P6. HEL92.1.7 cells were cultured in the presence of 250 nM Ganetespib or 1000 nM P6 and harvested at the indicated time points. The levels of JAK2, phosphorylated and total STAT3 and STAT5, phospho-AKT, phospho-ERK and GAPDH were determined by western blot.
(§3) Cells were disrupted in lysis buffer (CST) and solubilized in 2% SDS. Xenograft tumors (average volume of 100-200 mm3) were excised, cut in half, and flash frozen in liquid nitrogen. Each tumor fragment was lysed in 0.5 mL of lysis buffer using a FastPrep-24 homogenizer and Lysing Matrix A (MP Biomedicals, Solon, Ohio, USA) and lysates clarified by centrifugation. Equal amounts of proteins were resolved by SDS-PAGE and immunoblotted with indicated antibodies. The antigen-antibody complex was visualized and quantitated using an Odyssey system (LI-COR, Lincoln, Nebr., USA).

[3] = system: JAK2 signaling in DU145 cells; test: Western blot of JAK/STAT proteins in DU145 cells; format: cell-based, human
Experimental: DU145 cells were dosed with graded concentrations of ganetespib for 24 h and cell lysates subject to western blot to determine JAK/STAT and target protein levels using the antibodies indicated.
DU145 cells were treated with DMSO (control, C), 15 nM, 60 nM or 240 nM ganetespib for either 24 or 48 h and lysates probed by western blot with the indicated antibodies.
as §3

HEL92.1.7 cells [4] = test: Flow cytometry cell cycle analysis; format: cell-based, human
Experimental: HEL92.1.7 cells were plated at 0.5×10^6 cells/mL and treated as indicated. Cells were harvested and stained with propidium iodide using the BD Cycle TEST PLUS Reagent Kit (BD Biosciences, San Jose, Calif., USA) according to the manufacturer's instructions. Twenty thousand cells were analyzed for their DNA content using a FACS Caliber cytometer (BD Biosciences).

[5] = system: Cdk1, phospho-Chk2, cyclins in HEL92.1.7 cells; test: Western blot of cell cycle proteins in HEL92.1.7 cells; format: cell-based, human
Experimental: Cells were harvested at the indicated time points and the levels of total and phospho-Cdk1, phospho-Chk2 and GAPDH analyzed by western blot.
FIG. 12 illustrates the effects of ganetespib on JAK/STAT and cell cycle protein expression. HEL92.1.7 cells were treated with 100 nM ganetespib and subject to western blot to determine the levels of Cdk1, cyclin B1, cyclin A1, JAK2, total and phospho-STAT3, and GAPDH at hourly intervals over an 11 h time course.
as §3

[6] = system: phospho-STAT5 and Cdk1 in MV4-11 tumors; test: Pharmacodynamic analysis of MV4-11 xenograft tumors (western blot); format: in vivo, SCID mice
Experimental: SCID mice bearing MV4-11 tumors (n=4 mice/group) were treated with vehicle or ganetespib at either 25 mg/kg or 150 mg/kg at the indicated time points between 6 h and 144 h (6 days). Tumors were resected and the levels of p-STATS, Cdk1, Hsp70 and GAPDH were determined by western blot.
as §3
To determine whether these tumor responses correlated with target modulation in vivo, additional mice bearing MV4-11 xenografts were treated with a single dose of vehicle alone or ganetespib at 25 or 150 mg/kg. Tumors were harvested between 6 and 144 hours later and pharmacodynamic analysis was performed by examining the expression levels of phospho-STAT5, Cdk1 and Hsp70 (FIG. 17). In accord with the in vivo tumor growth data, dose-dependent effects on the duration of target inhibition within the tumors were observed. […] While the relatively quick recovery of STAT5 activation should have allowed the tumor to restart growth, the more durable suppression of the cell cycle regulators appeared to have kept the growth of the tumors arrested until the next drug dosing.

[7] = Tolerability studies in non-tumor bearing mice; format: in vivo; conditions: i.v.
Experimental: For both models, studies were conducted at the highest non-severely toxic doses (NHSTDs) of 150 mg/kg ganetespib one-time per week or 25 mg/kg ganetespib 5×/week for 3 weeks based on prior tolerability studies conducted in non-tumor bearing mice.

CC(C)c1cc(-c2nnc(O)n2-c2ccc3c(ccn3C)c2)c(O)cc1O [ganetespib, 3-(2,4-dihydroxy-5-isopropyl-phenyl)-4-(1-methyl-indol-5-yl)-5-hydroxy-[1,2,4] triazole]
induction of cell death (DU145 cells): potent inducer of cell death | fold more potent than 17-AAG, cell viability (HEL92.1.7 cells [1]; 72 h): greater than 100 fold | IC50 (HEL92.1.7 cells [1]; Homo sapiens, HEL 92.1.7, 72 h, Alamar blue, read-out: IC50, loss of cellular viability): 20 nM | sensitivity of cells in vitro (MV4-11 cells): highly sensitive | fold more potent than 17-AAG, cell viability (SET-2 cells): greater than 100 fold | JAK2 and phospho-AKT protein levels [2]: targeted loss of JAK2 and phospho-AKT protein levels | duration of STAT signaling suppression compared to P6 [2]: suppressed STAT signaling longer | potency compared to P6, JAK/STAT inhibitory activity [2]: at least four-fold more potent | JAK2 dependent signaling (phospho-STAT3, phospho-STAT5, ERK signaling) ([2]; 250 nM ganetespib or 1000 nM P6): blocked JAK2 dependent signaling | JAK1 kinase level ([3]; 15-240 nM, 24 or 48 h): not targeted for degradation | JAK2, phospho-STAT3 and phospho-SHP2 levels ([3]; 24 h): Loss of JAK2, phospho-STAT3 and phospho-SHP2 | cell cycle distribution (HEL92.1.7 cells [4]): temporal G1 and G2/M arrest in HEL92.1.7 cells, with concomitant loss of S phase | level of phospho-Chk2 [5]: reduced | cyclins A1 and B1 levels ([5]; 100 nM, 11 h time course): temporal accumulation of cyclins A1 and B1 | Cdk1 protein expression ([5]; ganetespib 250 nM or P6 1000 nM, 24-48 h): Reduced protein levels | time by which STAT5 activity recovered in tumors ([6]; single 25 mg/kg dose): ≤ 24 h | time of loss of Cdk1 in tumors ([6]; single 25 mg/kg dose): 24 h | time through which Cdk1 expression remained suppressed in tumors ([6]; single 25 mg/kg dose): at least 48 hours | time to potent inhibition of STAT5 activity in tumors ([6]; single 25 mg/kg dose): ≤ 6 h | duration of repressed STAT5 activation and suppressed Cdk1 expression in tumors ([6]; single 150 mg/kg dose): more than three days | highest non-severely toxic dose ([7]; 5×/week for 3 weeks): 25 mg/kg | highest non-severely toxic dose ([7]; one-time per week for 3 weeks): 150 mg/kg
